Reference: PubChem BioAssay (NCI)
Where “and” joins values, the source holds several entries; their conditions need not be identical. Equal entries are not always repeated.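 Five concentrations, 48 hours, 96-well plates. GI50 = concentration required for 50% inhibition of growth. TGI marks complete inhibition of growth.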

What was measured:
Assay in all cases: inhibition of tumour cell growth, NCI panel, 48 h
[1] = tested on: EKVX NSCLC
[2] = tested on: OVCAR-8 ovarian
[3] = tested on: MALME-3M melanoma
[4] = tested on: NCI/ADR-RES ovarian
[5] = tested on: A549 NSCLC
[6] = tested on: HT29 colon
[7] = tested on: SK-MEL-5 melanoma
[8] = tested on: HS 578T breast
[9] = tested on: DU-145 prostate
[10] = tested on: SNB-19 CNS

| SMILES | GI50 [1] | TGI [1] | GI50 [2] | TGI [2] | GI50 [3] | TGI [3] | GI50 [4] | TGI [4] | GI50 [5] | TGI [5] | GI50 [6] | TGI [6] | GI50 [7] | TGI [7] | GI50 [8] | TGI [8] | GI50 [9] | TGI [9] | GI50 [10] [µM] | TGI [10] |
| --- | --- | --- | --- | --- | --- | --- | --- | --- | --- | --- | --- | --- | --- | --- | --- | --- | --- | --- | --- | --- |
| COc1ccc(C(=O)COc2ccc(/C=C3\COc4ccc(OC)cc4C3=O)cc2)cc1 | 41.2 µM | > 100 µM | 18.4 µM | 66.5 µM | 57.2 µM | > 100 µM | 12 µM | 32.3 µM | > 100 µM | > 100 µM | 22.2 µM | > 100 µM | 24.6 µM | > 100 µM | 10.7 µM | 34.2 µM | 31 µM | > 100 µM | 29.8 | > 100 µM |
| CC1(C)[C@@H](OC(N)=O)[C@H]2O[C@H]2[C@]2(C=O)[C@H]3CC[C@]4(C)[C@@H](c5ccc(=O)oc5)[C@@H](Cl)C[C@]4(O)C3=CC[C@@H]12 | 0.00472 µM | 0.0102 µM | 0.00603 µM | 0.015 µM | 0.00629 µM | 0.0138 µM | 0.00589 µM | 0.0142 µM | 0.00442 µM | 0.00858 µM | 0.00581 µM | 0.0125 µM | 0.00459 µM | 0.00887 µM | 0.00409 µM | 0.0192 µM | 0.00437 µM | 0.00798 µM | 0.00796 | 0.0219 µM |
| CCn1c(-c2ccc(OC(C)=O)cc2)c(C)c2cc(OC(C)=O)ccc21 |  | 71.4 µM |  | > 100 µM |  | 76 µM |  | > 100 µM |  | 67.9 µM |  | 89.6 µM |  | 27.1 µM |  | 54.4 µM |  | 43.3 µM |  | > 100 µM |
| CCc1nc(C(N)=O)c(Nc2ccc(N3CCC(N4CCN(C)CC4)CC3)c(OC)c2)nc1NC1CCOCC1 | 0.83 µM and 0.375 µM and 0.727 µM | 18.2 µM and > 4.97 µM and 19 µM | 10.3 µM and 1.62 µM and 10.1 µM | 36.8 µM and > 10 µM and 30.2 µM | 0.946 µM and 0.239 µM and 0.764 µM |  | 4.33 µM and 3.75 µM and 5.19 µM | 22.2 µM and > 10 µM and 26.8 µM | 2.35 µM and 0.379 µM and 2.61 µM | 15.2 µM and > 10 µM and 16.1 µM | 0.569 µM and 0.251 µM and 0.467 µM | > 43.8 µM | 12.4 µM and > 10 µM and 13.2 µM | 25.4 µM and > 10 µM and 26.4 µM | 1.56 µM and 0.514 µM and 1.85 µM | 9.48 µM and > 2.32 µM and 11.3 µM | 0.904 µM and 0.359 µM and 0.719 µM | 18.5 µM and > 10 µM and 17.3 µM |  | 20.2 µM and > 10 µM and 22.7 µM |
| COc1ccc(CC2NCCc3cc(OC)c(OC)cc32)cc1Br (stereo not given) |  | > 100 µM |  | > 100 µM |  | 34.3 µM |  | > 100 µM |  | > 100 µM |  | 57.9 µM |  | 19.9 µM |  | > 100 µM |  | > 100 µM |  | > 100 µM |
| Clc1ccc(C=Nc2ccc3c(c2)Cc2ccccc2-3)c(Cl)c1 |  | > 100 µM |  | > 100 µM |  | > 100 µM |  | > 100 µM |  | > 100 µM |  | > 100 µM |  | > 100 µM |  | > 100 µM |  | > 100 µM |  | > 100 µM |
| C=C1CCC(CC[C@@H]2CC[C@]3(OC2)O[C@@]2(O)CC[C@]3(C)OC2(C)C)C(C)(C)[C@H]1C/C=C1/C(=O)OC[C@@H]1O (stereo not given in full) |  | 11.3 µM |  | 5.04 µM |  | 5.99 µM |  | 6.92 µM |  | 19.4 µM |  | 5.01 µM |  | 1.72 µM |  | 28.8 µM |  | 14.8 µM |  | 8.88 µM |
| COc1ccc(/C=C/C(=O)C(CC2CCC2)C(=O)/C=C/c2ccc(OC)c(OC)c2)cc1OC | 2.73 µM | 9.9 µM |  |  | 2.09 µM | 5.04 µM | 2.58 µM | > 100 µM |  |  | 1.78 µM | 4.34 µM | 1.77 µM | 3.25 µM | 3.19 µM | > 100 µM | 1.71 µM | 3.56 µM |  |  |
| Nc1ccc2cc3ccc(N)cc3nc2c1 | 0.64 µM | 10.6 µM and 6.53 µM and 7.66 µM | 0.599 µM |  | 1.16 µM [middle of 4 runs] | 3.21 µM [middle of 4 runs] | 1.21 µM | 5.25 µM and 5.26 µM and 11.2 µM |  |  |  | 9.02 µM [middle of 4 runs] |  | 2.74 µM and 4.33 µM and 2.93 µM |  | 6.59 µM and 7.97 µM and 9.65 µM | 1.45 µM | 18.1 µM and 10 µM and 9.47 µM |  |  |
| COc1cc(NC(C)CCCN)c2nccc(C)c2c1 (stereo not given) |  | > 100 µM |  |  |  | 35.6 µM |  | > 100 µM |  | > 100 µM |  | > 100 µM |  | 82.8 µM |  | 64.3 µM |  | > 100 µM |  | > 100 µM |
| Cc1ccc(-c2nc3ccc(Cl)cc3c(=O)n2N2C(=O)CSC2c2ccccc2Cl)cc1 (stereo not given) | 4.15 µM | > 100 µM | 4.58 µM | > 100 µM | 5.97 µM | > 100 µM | 8.87 µM | > 100 µM |  |  | 60.2 µM | > 100 µM | 20 µM | > 100 µM | 2.62 µM | 17.2 µM | 58.4 µM | > 100 µM | 5 | > 100 µM |
| CC(CO)(CO)NCCCCn1ccc2c1C(=O)c1c(c(O)c3ccccc3c1O)C2=O | 17.8 µM | 44.5 µM | 3.48 µM | 12 µM | 1.69 µM | 7.38 µM | 2.36 µM | 6.02 µM |  |  |  |  |  |  | 30.3 µM | 73.4 µM | 16.1 µM | 30.5 µM | 18.4 | 42.2 µM |
